Assay results published in the Kinase Knowledgebase extract (Sharma et al. 2016).

Key:
CDK2 = CDK2 (UniProt P24941); assay: Enzyme Assay; settings: for inhibition: concentration not given here
CDK2 (human) = CDK2 (human) (UniProt P24941); assay: Cell-Based Assay; settings: sw480

| IC50 (CDK2) [µM] | SMILES | inhibition (CDK2) [%] | other results |
| --- | --- | --- | --- |
| < 3.5 | COc1cc[nH]c1/C=C1\C(=O)Nc2ccc3[nH]c(CCCc4ccccc4)nc3c21 |  |  |
| < 3.5 | COc1cc[nH]c1/C=C1\C(=O)Nc2ccc3[nH]c(NC(C)c4ccccc4)nc3c21 (configuration not stated) |  |  |
| < 3.5 | COc1cc[nH]c1/C=C1\C(=O)Nc2ccc3[nH]c(-c4ccccc4)nc3c21 |  |  |
| < 3.5 | Cc1nc[nH]c1/C=C1\C(=O)Nc2ccc([N+](=O)[O-])c(N)c21 |  |  |
| < 3.5 | Cc1nc[nH]c1/C=C1\C(=O)Nc2ccc([N+](=O)[O-])c(N=[N+]=[N-])c21 |  |  |
| < 3.5 | COc1cc[nH]c1/C=C1\C(=O)Nc2ccc3[nH]c(Nc4ccc(N(C)C)cc4)nc3c21 |  |  |
| < 3.5 | COCCCNc1nc2c3c(ccc2[nH]1)NC(=O)/C3=C\c1[nH]ccc1OC |  |  |
| < 3.5 | COc1ccc(Cc2nc3c4c(ccc3[nH]2)NC(=O)/C4=C\c2[nH]ccc2OC)cc1 |  |  |
| < 3.5 | O=C1Nc2ccc3[nH]c(-c4ccccc4)nc3c2/C1=C/c1ccc[nH]1 |  |  |
| < 3.5 | COc1cc[nH]c1/C=C1\C(=O)Nc2ccc3[nH]c(-c4ccccc4O)nc3c21 |  |  |
| < 3.5 | COc1cc[nH]c1/C=C1\C(=O)Nc2ccc3[nH]c(C)nc3c21 |  | IC50 (CDK2 (human)): < 1 µM |
| < 3.5 | Cc1nc[nH]c1/C=C1\C(=O)Nc2ccc(N)c(N)c21 |  |  |
| < 3.5 | COc1cc[nH]c1/C=C1\C(=O)Nc2ccc3[nH]c(CCc4ccc(O)cc4)nc3c21 |  |  |
| < 3.5 | COc1cc[nH]c1/C=C1\C(=O)Nc2ccc3nc[nH]c3c21 |  |  |
| < 3.5 | COc1cc[nH]c1/C=C1\C(=O)Nc2ccc3[nH]c(NCC4CCCO4)nc3c21 (configuration not stated) |  |  |
| < 3.5 | COc1cc[nH]c1/C=C1\C(=O)Nc2ccc3[nH]c(C(O)c4ccccc4)nc3c21 (configuration not stated) |  |  |
| < 3.5 | Cc1nc[nH]c1/C=C1\C(=O)Nc2ccc([N+](=O)[O-])c(F)c21 |  |  |

Second part, the molecule before the results:

| SMILES | IC50 (CDK2) [µM] | inhibition (CDK2) [%] | other results |
| --- | --- | --- | --- |
| COc1ccc(Nc2nc3c4c(ccc3[nH]2)NC(=O)/C4=C\c2[nH]ccc2OC)cc1OC |  | < 50 |  |
| COc1ccc(Nc2nc3c4c(ccc3[nH]2)NC(=O)/C4=C\c2[nH]ccc2OC)cc1 |  | < 50 |  |
| COc1cc[nH]c1/C=C1\C(=O)Nc2ccc3nc(Nc4ccc5c(c4)CCC5)[nH]c3c21 |  | < 50 |  |
| COC(=O)c1ccc(Nc2nc3c4c(ccc3[nH]2)NC(=O)/C4=C\c2[nH]ccc2OC)cc1 |  | < 50 |  |
| COc1cc[nH]c1/C=C1\C(=O)Nc2ccc3nc(NCc4ccc5c(c4)OCO5)[nH]c3c21 |  | < 50 |  |
| COc1cc[nH]c1/C=C1\C(=O)Nc2ccc3[nH]c(NCCCCc4ccccc4)nc3c21 |  | < 50 |  |
| COc1cc[nH]c1/C=C1\C(=O)Nc2ccc3nc(NCCCc4ccccc4)[nH]c3c21 |  | < 50 |  |
| CCOC(=O)c1ccc(Nc2nc3c4c(ccc3[nH]2)NC(=O)/C4=C\c2[nH]ccc2OC)cc1 |  | < 50 |  |
| COc1cc[nH]c1/C=C1\C(=O)Nc2ccc3[nH]c(-c4ccc(C(=O)O)cc4)nc3c21 | < 3.5 |  |  |
| COc1ccccc1Nc1nc2c3c(ccc2[nH]1)NC(=O)/C3=C\c1[nH]ccc1OC |  | < 50 |  |
| Cc1nc[nH]c1/C=C1\C(=O)Nc2ccc3[nH]cnc3c21 | < 3.5 |  |  |
| COc1ccc(CCNc2nc3c4c(ccc3[nH]2)NC(=O)/C4=C\c2[nH]ccc2OC)cc1OC |  | < 50 |  |
| COc1cc[nH]c1/C=C1\C(=O)Nc2ccc3[nH]c(Nc4cccc(C(C)=O)c4)nc3c21 |  | < 50 |  |
| COc1cc[nH]c1/C=C1\C(=O)Nc2ccc3nc(NCc4cccc5ccccc45)[nH]c3c21 |  | < 50 |  |
